In ChEMBL document CHEMBL6074711, “Design, Synthesis, and Activity Evaluation of C-23-Modified 5-O-Mycaminosyltylonolide Derivatives” (ACS Med Chem Lett, 2024):
Converted amounts (≈) assume the structure as drawn.

Key:
Type in all cases: functional
[1] = tested on: Staphylococcus aureus; experiment: Antibacterial activity against Staphylococcus aureus ATCC25923 incubated for 16 to 20 hrs by broth microdilution method; settings: time 16-20 hrs
[2] = tested on: Escherichia coli; experiment: Antibacterial activity against Escherichia coli ATCC25922 incubated for 16 to 20 hrs by broth microdilution method; settings: time 16-20 hrs
[3] = tested on: Enterococcus faecalis; experiment: Antibacterial activity against Enterococcus faecalis ATCC29212 incubated for 16 to 20 hrs by broth microdilution method; settings: time 16-20 hrs
[4] = tested on: Stenotrophomonas maltophilia; experiment: Antibacterial activity against Stenotrophomonas maltophilia ATCC17808 incubated for 16 to 20 hrs by broth microdilution method; settings: time 16-20 hrs
[5] = tested on: Staphylococcus aureus; experiment: Antibacterial activity against Staphylococcus aureus ATCC25923 under 10^4 CFU/ml of bacterial inoculum culture by absorbance based assay
[6] = tested on: Staphylococcus aureus; experiment: Antibacterial activity against Staphylococcus aureus ATCC25923 under 10^5 CFU/ml of bacterial inoculum culture by absorbance based assay
[7] = tested on: Staphylococcus aureus; experiment: Antibacterial activity against Staphylococcus aureus ATCC25923 under 10^6 CFU/ml of bacterial inoculum culture by absorbance based assay
[8] = tested on: Staphylococcus aureus; experiment: Antibacterial activity against Staphylococcus aureus ATCC25923 under 10^7 CFU/ml of bacterial inoculum culture by absorbance based assay

Row | MIC [1] [µg/mL] | MIC [2] [µg/mL] | MIC [3] [µg/mL] | MIC [4] [µg/mL] | SMILES | MIC [5] [µg/mL] | MIC [6] [µg/mL] | MIC [7] [µg/mL] | MIC [8] [µg/mL]
1 | 0.5 (≈ 0.549 µM) | 2 (≈ 2.2 µM) | 2 (≈ 2.2 µM) | 2 (≈ 2.2 µM) | CC[C@H]1OC(=O)C[C@@H](O)[C@H](C)[C@@H](O[C@@H]2O[C@H](C)[C@@H](O)[C@H](N(C)C)[C@H]2O)[C@@H](CCNCc2cn(-c3cnc4ccccc4c3)nn2)C[C@@H](C)C(=O)/C=C/C(C)=C/[C@@H]1CN(C)Cc1ccccc1 | – | – | – | –
2 | 4 (≈ 4.39 µM) | 4 (≈ 4.39 µM) | 8 (≈ 8.79 µM) | 4 (≈ 4.39 µM) | CC[C@H]1OC(=O)C[C@@H](O)[C@H](C)[C@@H](O[C@@H]2O[C@H](C)[C@@H](O)[C@H](N(C)C)[C@H]2O)[C@@H](CCN(C)Cc2cn(-c3cnc4ccccc4c3)nn2)C[C@@H](C)C(=O)/C=C/C(C)=C/[C@@H]1CNc1ccc(C)cc1 | – | – | – | –
3 | 2 (≈ 2.15 µM) | 8 (≈ 8.62 µM) | 8 (≈ 8.62 µM) | 4 (≈ 4.31 µM) | CC[C@H]1OC(=O)C[C@@H](O)[C@H](C)[C@@H](O[C@@H]2O[C@H](C)[C@@H](O)[C@H](N(C)C)[C@H]2O)[C@@H](CCN(C)Cc2cn(-c3cnc4ccccc4c3)nn2)C[C@@H](C)C(=O)/C=C/C(C)=C/[C@@H]1CNCc1ccc(F)cc1 | – | – | – | –
4 | 4 (≈ 4.04 µM) | 8 (≈ 8.09 µM) | 8 (≈ 8.09 µM) | 8 (≈ 8.09 µM) | CC[C@H]1OC(=O)C[C@@H](O)[C@H](C)[C@@H](O[C@@H]2O[C@H](C)[C@@H](O)[C@H](N(C)C)[C@H]2O)[C@@H](CCN(C)Cc2cn(-c3cnc4ccccc4c3)nn2)C[C@@H](C)C(=O)/C=C/C(C)=C/[C@@H]1CNCc1ccc(Br)cc1 | – | – | – | –
5 | 2 (≈ 2.13 µM) | 8 (≈ 8.53 µM) | 4 (≈ 4.26 µM) | 2 (≈ 2.13 µM) | CC[C@H]1OC(=O)C[C@@H](O)[C@H](C)[C@@H](O[C@@H]2O[C@H](C)[C@@H](O)[C@H](N(C)C)[C@H]2O)[C@@H](CCN(C)Cc2cn(-c3cnc4ccccc4c3)nn2)C[C@@H](C)C(=O)/C=C/C(C)=C/[C@@H]1CN(CC)Cc1ccccc1 | – | – | – | –

The next lines start with the molecule.

Row | SMILES | MIC [1] [µg/mL] | MIC [2] [µg/mL] | MIC [3] [µg/mL] | MIC [4] [µg/mL] | MIC [5] [µg/mL] | MIC [6] [µg/mL] | MIC [7] [µg/mL] | MIC [8] [µg/mL]
6 | CCc1ccc(NC[C@H]2/C=C(C)/C=C/C(=O)[C@H](C)C[C@H](CCN(C)Cc3cn(-c4cnc5ccccc5c4)nn3)[C@H](O[C@@H]3O[C@H](C)[C@@H](O)[C@H](N(C)C)[C@H]3O)[C@@H](C)[C@H](O)CC(=O)O[C@@H]2CC)cc1 | 2 (≈ 2.16 µM) | 2 (≈ 2.16 µM) | 2 (≈ 2.16 µM) | 2 (≈ 2.16 µM) | – | – | – | –
7 | CC[C@H]1OC(=O)C[C@@H](O)[C@H](C)[C@@H](O[C@@H]2O[C@H](C)[C@@H](O)[C@H](N(C)C)[C@H]2O)[C@@H](CCN(C)Cc2cn(-c3cnc4ccccc4c3)nn2)C[C@@H](C)C(=O)/C=C/C(C)=C/[C@@H]1CNc1ccc(I)cc1 | 2 (≈ 1.96 µM) | 4 (≈ 3.91 µM) | 8 (≈ 7.83 µM) | 4 (≈ 3.91 µM) | – | – | – | –
8 | CC[C@H]1OC(=O)C[C@@H](O)[C@H](C)[C@@H](O[C@@H]2O[C@H](C)[C@@H](O)[C@H](N(C)C)[C@H]2O)[C@@H](CCN(C)Cc2cn(-c3cnc4ccccc4c3)nn2)C[C@@H](C)C(=O)/C=C/C(C)=C/[C@@H]1CNCc1ccc(C)cc1 | 1 (≈ 1.08 µM) | 2 (≈ 2.16 µM) | 4 (≈ 4.33 µM) | 2 (≈ 2.16 µM) | – | – | – | –
9 | C[C@@H](O)[C@H]1C(=O)N2C(C(=O)O)=C(S[C@@H]3CN[C@H](C(=O)N(C)C)C3)[C@H](C)[C@H]12 [MEROPENEM] | 0.063 (≈ 0.164 µM) | 0.125 (≈ 0.326 µM) | 0.063 (≈ 0.164 µM) | 0.125 (≈ 0.326 µM) | 0.25 (≈ 0.652 µM) | 0.5 (≈ 1.3 µM) | 1 (≈ 2.61 µM) | 2 (≈ 5.22 µM)
10 | CC[C@H]1OC(=O)C[C@@H](O)[C@H](C)[C@@H](O[C@@H]2O[C@H](C)[C@@H](O)[C@H](N(C)C)[C@H]2O)[C@@H](CCN(C)Cc2cn(-c3cnc4ccccc4c3)nn2)C[C@@H](C)C(=O)/C=C/C(C)=C/[C@@H]1CN(Cc1ccccc1)C(C)C | 8 (≈ 8.4 µM) | 16 (≈ 16.8 µM) | 16 (≈ 16.8 µM) | 8 (≈ 8.4 µM) | – | – | – | –
11 | CC[C@H]1OC(=O)C[C@@H](O)[C@H](C)[C@@H](O[C@@H]2O[C@H](C)[C@@H](O)[C@H](N(C)C)[C@H]2O)[C@@H](CCNCc2cn(-c3cnc4ccccc4c3)nn2)C[C@@H](C)C(=O)/C=C/C(C)=C/[C@@H]1CN(CC)Cc1ccccc1 | 2 (≈ 2.16 µM) | 1 (≈ 1.08 µM) | 2 (≈ 2.16 µM) | 1 (≈ 1.08 µM) | – | – | – | –
12 | CC[C@H]1OC(=O)C[C@@H](O)[C@H](C)[C@@H](O[C@@H]2O[C@H](C)[C@@H](O)[C@H](N(C)C)[C@H]2O)[C@@H](CCN(C)Cc2cn(-c3cnc4ccccc4c3)nn2)C[C@@H](C)C(=O)/C=C/C(C)=C/[C@@H]1CNCc1cccc(Br)c1 | 4 (≈ 4.04 µM) | 8 (≈ 8.09 µM) | 8 (≈ 8.09 µM) | 8 (≈ 8.09 µM) | – | – | – | –
13 | CC[C@H]1OC(=O)C[C@@H](O)[C@H](C)[C@@H](O[C@@H]2O[C@H](C)[C@@H](O)[C@H](N(C)C)[C@H]2O)[C@@H](CCN(C)Cc2cn(-c3cnc4ccccc4c3)nn2)C[C@@H](C)C(=O)/C=C/C(C)=C/[C@@H]1CNCc1ccccc1 | 1 (≈ 1.1 µM) | 2 (≈ 2.2 µM) | 4 (≈ 4.39 µM) | 2 (≈ 2.2 µM) | – | – | – | –
